The assay addresses Envelope glycoprotein gp160 (Human immunodeficiency virus 1, UniProt Q6QLK5). Description: inhibitors of HIV fusion peptide binding, primary screen, biochemical, uHTS, fluorescence dequenching (AID 1986).

Calls of active or inactive are those of the source. No stated cut-off is given here; in the data, actives have a measured IC50 and inactives only a lower limit.

Chain of Envelope glycoprotein gp160 (Q6QLK5 whole entry, the tested form may be a part): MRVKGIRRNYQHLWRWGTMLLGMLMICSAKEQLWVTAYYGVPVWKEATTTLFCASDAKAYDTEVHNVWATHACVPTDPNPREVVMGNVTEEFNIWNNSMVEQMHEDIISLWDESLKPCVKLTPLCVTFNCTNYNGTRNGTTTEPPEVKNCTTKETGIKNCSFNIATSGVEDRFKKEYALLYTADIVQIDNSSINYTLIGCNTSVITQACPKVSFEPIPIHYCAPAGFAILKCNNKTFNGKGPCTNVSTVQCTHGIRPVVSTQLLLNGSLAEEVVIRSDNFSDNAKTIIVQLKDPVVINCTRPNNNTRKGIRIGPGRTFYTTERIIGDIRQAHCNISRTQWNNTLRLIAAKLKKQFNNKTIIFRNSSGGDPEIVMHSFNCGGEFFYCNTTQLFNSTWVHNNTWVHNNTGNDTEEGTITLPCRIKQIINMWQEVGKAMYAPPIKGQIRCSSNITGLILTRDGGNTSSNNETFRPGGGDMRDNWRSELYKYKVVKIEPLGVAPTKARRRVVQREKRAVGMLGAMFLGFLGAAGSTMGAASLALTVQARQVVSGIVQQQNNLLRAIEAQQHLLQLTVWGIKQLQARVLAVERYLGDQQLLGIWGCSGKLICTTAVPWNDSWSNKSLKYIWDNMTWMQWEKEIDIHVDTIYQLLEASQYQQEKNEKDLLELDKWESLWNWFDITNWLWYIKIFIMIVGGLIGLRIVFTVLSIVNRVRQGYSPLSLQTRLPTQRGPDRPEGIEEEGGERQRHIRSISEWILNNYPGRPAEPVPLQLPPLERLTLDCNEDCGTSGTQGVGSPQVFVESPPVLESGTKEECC

In general, IC50 refers to the concentration needed to halve the response being measured. As for `COc1cc(/C=C2\C(=N)N3N=C(S(C)(=O)=O)SC3=NC2=O)ccc1OC(=O)c1ccco1`, the IC50 is 21.9 µM (active).
For the compound `O=C(O)COc1ccccc1/C=N/NC(=O)CSc1nnc(SCc2cccc3ccccc23)s1`, the IC50 is 26.6 µM (active).

(Values after ChEMBL document CHEMBL1201862, “PubChem BioAssay data set” (2004).)
